From US4778797A, “Organo-silicon compounds, process for the manufacture of same, and anti-tumor agent comprising the compound” (Sanwa Kagaku Kenkyusho Co., Ltd., priority 1984, dated 1988) come the findings set out here.

Converted amounts (≈) assume the structure as drawn. Like-named read-outs stand apart in the source and are kept apart here. A value given as a limit tells only on which side of the number the result lay.

The test system of one data set is B-16 melanoma. As to the kind of experiment: Anti-tumor action to B-16 melanoma. Format: in vivo, BDF1 female mice. As to conditions: oral, tumor weight at 21st day; for inhibition in vivo at 250 mg/kg/day: 250 mg/kg/day × 3. An excerpt:
B-16 melanoma (1×10^5 cells) was transplanted under skin of BDF1 female mice (age of about 5 weeks), and each of testing compounds was orally dosed at 1st, 5th and 9th day after the transplantation. At 21st day after the transplantation, the mice were killed to measure a weight of the cancerous tumor and to finally determine an inhibition ratio.

In the next data set the test system is MM-46 adenocarcinoma. As to the kind of experiment: Anti-tumor action to MM-46 adenocarcinoma. Format: in vivo, C3H/He female mice. Particulars: oral, 250 mg/kg/day × 3 (1st, 5th, 9th day); days to death, testing vs control group. From the text: MM-46 adenocarcinoma (1×10^6 cells) was transplanted under skin of C3H/He female mice (age of about 5 weeks), and each of testing compounds was orally dosed at 1st, 5th and 9th day after the transplantation to check days of life on the mice.
T: days to death on testing group, and
C: days to death on control group.

For a further data set, the system named is KB cells. As to the kind of experiment: Suppression of KB cell proliferation in vitro. Format: cell-based. As to conditions: Homo sapiens, 72 h, 3 days exposure, Trypan Blue dye-exclusion, read-out: KB IC50 (50% inhibition density to tumor cell proliferation). On the procedure: In a cultivation device (5% CO2, 37° C.), KB cells (1×10^4 cells) were cultivated for 24 hours in a culture tube with 1 ml of Eagle culture medium added 10% ox serum, the used culture medium was thrown away to change with a fresh culture medium (0.9 ml), and then 0.1 ml of a similar culture fluid containing each testing compound prepared by the process as described in the Examples was added to cultivate the same for further 3 days. Thereafter, living cells were dyed with Tripan Blue and measured same through a dye-exclusion method.
A control was treated in a manner similar to the above, except that a culture fluid containing no compound of the invention was added.
50% inhibition density (IC50) to the tumor cell proliferation was decided through the tests between the testing group and the control group to obtain results as shown in following Table 1.

A further data set relates to L-1210 leukemia. The data set can be described thus: Anti-tumor action to L-1210 leukemia. Format: in vivo, BDF1 female mice. Particulars: Mus musculus, L1210, oral; for ILS at 250 mg/kg/day: 250 mg/kg/day × 3 (1st, 5th, 9th day); for ILS at 500 mg/kg/day: 500 mg/kg/day × 3 (1st, 5th, 9th day). How it is done: L-1210 leukemia cell (1×10^5 cells) was transplanted in a abdominal cavity of BDF1 female mice (20-21 g, age of about 5 weeks), and each of testing compounds was orally dosed in 250 mg/kg or 500 mg/kg at 1st, 5th and 9th day after the transplantation to check days of life of the mice. [formula]

The test system of another data set is Lewis lung carcinoma. The data set can be described thus: Anti-tumor action to Lewis lung carcinoma (primary tumor weight and metastasis). Format: in vivo, BDF1 mice. Particulars: Mus musculus, po, 504 h. From the text: Lewis lung carcinoma (1×10^5 cells) was transplanted under skin of right ear of BDF1 mice (age of about 5 weeks), and each of testing compounds was orally dosed 10 times from 1st to 10th day after the transplantation. At 21st day after the transplantation, the mice were killed to measure a weight of the primarly tumor and to extract a lung. The lung was fixed in a conventional manner to count a number of metastasis on cancerous cells with use of a stereomicroscope having a low magnification. An anti-tumor action of each compound was expressed with an inhibition in weight of the primarly tumor and an inhibition of the metastasis.

The test system of another data set is Colon-38 carcinoma. The data set can be described thus: Anti-tumor action to Colon-38 carcinoma. Format: in vivo, BDF1 mice. As to conditions: oral, tumor weight at 28th day. On the procedure: 0.02 ml of 10(W/V)% cell suspension prepared from a solid cancer cell (Colon-38 carcinoma) were transplanted under skin of BDF1 mice (20-21 g, age of about 5 weeks), and each of testing compounds was orally dosed to the mice at 1st, 5th and 9th day after the transplantation. A major and minor axes of the cancerous tumor were measured at 11th, 14th, 21st, 25th and 28th day after the transplantation to calcurate volume of the tumor in accordance with the following.
At 28th day from the transplantation, the mice were killed and each of the cancerous tumors was extracted to measure its weight and to determine an inhibitation ratio in comparison with a non-treated control group.

A short description of another data set: Acute toxicity. Particulars: mouse, in vivo; oral gavage, suspended in 0.1% P-1570, female mice, 21 days observation. Format: in vivo, CrJ/CDI female mice. How it is done: Each of testing compounds suspended in 0.1% P-1570 was orally and forcedly dosed through a gastric probe to CrJ/CDI female mice (21 to 22 g, age of about 5 weeks). An identification number was given to each mouse, and a weighing and observation on general behavior were carried out just before the dosage and each day after the same. Each of died mice was subjected without delay to an autopsy to check the same, more particularly in detail on enterona. All of living mice were killed at 21st day from the dosage to carry out an autopsy for checking the same, more particularly on entrails.
An LD50 was calculated in accordance with the Leed and Munch's method.
A similar test was carried out on each controls of 1-[2-[(2-trimethylsilylethyl)thio]ethylcarbamoyl]-5-fluorouracil and 1-hexylcarbamoyl-5-fluorouracil (HCFU) which is one of exemplary anti-tumor agents.

Where [1] appears, read: Mus musculus, B16, 504 h, read-out: B-16 melanoma Inhibition ratio.

For the compound `CC(C)[Si](C)(C)CCSCCNC(=O)n1cc(F)c(=O)[nH]c1=O` [Example 5, 5-Fluoro-3,4-dihydro-N-[2-[[2-(isopropyldimethylsilyl)ethyl]thio]ethyl]-2,4-dioxo-1(2H)-pyrimidinecarboxamide], the “B-16 melanoma Inhibition ratio” value with B-16 melanoma (300 mg/kg/day × 3) is 79.7%. The “MM-46 adenocarcinoma T/C × 100” value in the data set on MM-46 adenocarcinoma is listed as 162%. Further, the IC50 in the data set with KB cells is 4 µg/mL (≈ 11.1 µM). The ILS at 250 mg/kg/day in the data set with L-1210 leukemia (read-out: L-1210 ILS) was 51%; in the data set on L-1210 leukemia (read-out: L-1210 Judgement), 25 to 50%. Moreover, the results for the ILS at 500 mg/kg/day in the data set with L-1210 leukemia (read-out: L-1210 ILS) and in the data set on L-1210 leukemia (read-out: L-1210 Judgement) were 106% and ≥ 100%, respectively. In addition, the inhibition in vivo at 13.5 mg/kg/day was determined as 34.7% with Lewis lung carcinoma (13.5 mg/kg/day × 10 + Amputation, 21st day, read-out: Inhibition Ratio weight LLC); 15.4% in the data set on Lewis lung carcinoma (13.5 mg/kg/day × 10 + Amputation, lung, 21st day, printed in parentheses, read-out: Inhibition Ratio metastasis); 0% in the data set on Lewis lung carcinoma (13.5 mg/kg/day × 10, 21st day, read-out: Inhibition Ratio weight LLC); 19.3% in the data set on Lewis lung carcinoma (13.5 mg/kg/day × 10, lung, 21st day, read-out: Inhibition Ratio metastasis). Besides, the inhibition in vivo at 27 mg/kg/day was 35.8% with Lewis lung carcinoma (27 mg/kg/day × 10 + Amputation, 21st day, read-out: Inhibition Ratio weight LLC); > 39.5% in the data set on Lewis lung carcinoma (27 mg/kg/day × 10 + Amputation, lung, 21st day, printed in parentheses, read-out: Inhibition Ratio metastasis); 7.1% with Lewis lung carcinoma (27 mg/kg/day × 10, 21st day, read-out: Inhibition Ratio weight LLC); 78.4% in the data set with Lewis lung carcinoma (27 mg/kg/day × 10, lung, 21st day, read-out: Inhibition Ratio metastasis). Besides, the inhibition in vivo at 54 mg/kg/day came to 34.9% in the data set with Lewis lung carcinoma (54 mg/kg/day × 10, 21st day, read-out: Inhibition Ratio weight LLC) and 83% in the data set with Lewis lung carcinoma (54 mg/kg/day × 10, lung, 21st day, read-out: Inhibition Ratio metastasis). Further, in the data set on Colon-38 carcinoma (289 mg/kg/day × 3), the “colon-38 Inhibition ratio” value is 89.8%.

Turning to `C[Si](C)(C)CCCSCCCNC(=O)n1cc(F)c(=O)[nH]c1=O` [Example 10, 5-Fluoro-3,4-dihydro-2,4-dioxo-N-[3-[[3-(trimethylsilyl)propyl]thio]propyl]-1(2H)-pyrimidinecarboxamide], the LD50 at 504 h in the data set “Acute toxicity” is 2170 mg/kg. The inhibition in vivo at 125 mg/kg/day in the data set on B-16 melanoma (Mus musculus, B16, 504 h, 125 mg/kg/day × 3, read-out: B-16 melanoma Inhibition ratio) turned out to be 38.1%. Besides, in the data set with B-16 melanoma (setting [1]), the inhibition in vivo at 250 mg/kg/day was 15.2%. The IC50 in the data set on KB cells was 10 µg/mL (≈ 27.7 µM). For the same compound, in the data set on L-1210 leukemia (read-out: L-1210 ILS), the ILS at 250 mg/kg/day came out at 49% and the ILS at 500 mg/kg/day was 111%. Further, in the data set on L-1210 leukemia (read-out: L-1210 Judgement), the ILS at 250 mg/kg/day is 25 to 50% and the ILS at 500 mg/kg/day is ≥ 100%. Further, in the data set with Colon-38 carcinoma (Mus musculus, 672 h, 289 mg/kg/day × 3, read-out: colon-38 Inhibition ratio), the inhibition in vivo at 289 mg/kg/day was 89.5%.

Consider `C[Si](C)(C)CCSCCCNC(=O)n1cc(F)c(=O)[nH]c1=O` [Example 8, 5-Fluoro-3,4-dihydro-2,4-dioxo-N-[3-[[2-(trimethylsilyl)ethyl]thio]propyl]-1-(2H)-pyrimidinecarboxamide], for which the median lethal dose (LD50) at 504 h in the data set “Acute toxicity” worked out at 1360 mg/kg. In addition, the inhibition in vivo at 250 mg/kg/day in the data set with B-16 melanoma (setting [1]) came out at 4.3%. Also, the IC50 in the data set on KB cells worked out at 7 µg/mL (≈ 20.1 µM). Besides, the ILS at 250 mg/kg/day in the data set with L-1210 leukemia (read-out: L-1210 ILS) is 27%; in the data set with L-1210 leukemia (read-out: L-1210 Judgement) it was 25 to 50%. In addition, the ILS at 500 mg/kg/day in the data set with L-1210 leukemia (read-out: L-1210 ILS) is 70%; with L-1210 leukemia (read-out: L-1210 Judgement) it was 50 to 100%. For the same compound, the inhibition in vivo at 13 mg/kg/day in the data set on Lewis lung carcinoma (13 mg/kg/day × 10 + Amputation, 21st day, read-out: Inhibition Ratio weight LLC) came to 33.3%; in the data set with Lewis lung carcinoma (13 mg/kg/day × 10 + Amputation, lung, 21st day, printed in parentheses, read-out: Inhibition Ratio metastasis), 18.4%; in the data set on Lewis lung carcinoma (13 mg/kg/day × 10, 21st day, read-out: Inhibition Ratio weight LLC) it was 0%; in the data set on Lewis lung carcinoma (13 mg/kg/day × 10, lung, 21st day, read-out: Inhibition Ratio metastasis) it was 53%. For the same compound, the inhibition in vivo at 26 mg/kg/day turned out to be 64.9% in the data set with Lewis lung carcinoma (26 mg/kg/day × 10 + Amputation, 21st day, read-out: Inhibition Ratio weight LLC); 33.6% in the data set with Lewis lung carcinoma (26 mg/kg/day × 10 + Amputation, lung, 21st day, printed in parentheses, read-out: Inhibition Ratio metastasis); 26.2% in the data set on Lewis lung carcinoma (26 mg/kg/day × 10, 21st day, read-out: Inhibition Ratio weight LLC); 92.5% in the data set with Lewis lung carcinoma (26 mg/kg/day × 10, lung, 21st day, read-out: Inhibition Ratio metastasis). Moreover, the inhibition in vivo at 278 mg/kg/day in the data set on Colon-38 carcinoma (Mus musculus, 672 h, 278 mg/kg/day × 3, read-out: colon-38 Inhibition ratio) was 78%.

The compound `CC[Si](CC)(CC)CCSCCNC(=O)n1cc(F)c(=O)[nH]c1=O` [Example 2, 5-Fluoro-3,4-dihydro-2,4-dioxo-N-[2-[[(2-triethylsilyl)ethyl]thio]ethyl]-1(2H)-pyrimidinecarboxamide] returned an LD50 at 504 h in the data set “Acute toxicity” of 1540 mg/kg. Besides, the inhibition in vivo at 300 mg/kg/day in the data set with B-16 melanoma (Mus musculus, B16, 504 h, 300 mg/kg/day × 3, read-out: B-16 melanoma Inhibition ratio) turned out to be 47.2%; in the data set with Colon-38 carcinoma (Mus musculus, 672 h, 300 mg/kg/day × 3, read-out: colon-38 Inhibition ratio) it was 71.9%. Moreover, the IC50 with KB cells was determined as 13 µg/mL (≈ 34.6 µM). The ILS at 250 mg/kg/day with L-1210 leukemia (read-out: L-1210 ILS) is 19%; in the data set with L-1210 leukemia (read-out: L-1210 Judgement), < 25%. Also, the ILS at 500 mg/kg/day was 96% with L-1210 leukemia (read-out: L-1210 ILS) and 50 to 100% with L-1210 leukemia (read-out: L-1210 Judgement). In addition, the inhibition in vivo at 14 mg/kg/day in the data set on Lewis lung carcinoma (14 mg/kg/day × 10, 21st day, read-out: Inhibition Ratio weight LLC) was found to be 0%; with Lewis lung carcinoma (14 mg/kg/day × 10, lung, 21st day, read-out: Inhibition Ratio metastasis) it was 45.2%.

The term LD50 denotes the dose at which mortality reaches 50%. High values mean lower toxicity, low ones greater toxicity.
